Source: publication PMC7400623, “Effect of lysine side chain length on histone lysine acetyltransferase catalysis” (Scientific Reports, 2020)
Values belong to the substance of their own block, whether it stands above or below them.

Assays:
[1] = target: Human GCN5 catalytic domain (residues 497-662) (human) (UniProt Q92830)
[2] = target: Human PCAF catalytic domain (residues 498-658) (human) (UniProt Q92831)
PCAF catalytic domain = target: T1, PCAF catalytic domain (Homo sapiens, UniProt Q92831); assay: MALDI-TOF MS kinetics assay, PCAF; format: biochemical; conditions: for kcat^app / Km: PCAF catalytic domain 50 nM (2 µM for unnatural analogs), peptide 1,050–0 µM, pH 7.4, 37 °C, MALDI-TOF MS, duplicates, value ± SD, SD; for kcat^app: AcCoA 100 µM (saturating), 50 mM HEPES, 0.1 mM EDTA, 0.01% TRITON-X; for Km: AcCoA 100 µM, read-out: Km^app; for kcat^app/Km^app: same kinetics conditions
T1 construct: Human PCAF catalytic domain (residues 498–658 in pET16b vector); SNAP-tag; His-tag; made in house; host or cells: E. coli BL21(DE3)
Text: (§1) Kinetic analysis of bi-substrate enzymes, such as KATs, is reckoned to be challenging and dependent on many factors. Firstly, given the nature of these enzymes, the binding of one of the two substrates directly influences the binding of the other (with a direct effect on the Michaelis–Menten parameter Km). […] Therefore, to obtain data that would allow us to directly compare the catalytic properties of the selected KATs towards our selection of histone peptides bearing lysine analogs with longer side chains, two strategies to standardize our kinetic evaluation were taken: i) all the experiments were carried out with the same saturating concentrations of AcCoA and ii) only KATs catalytic domains were employed in the study.
(§2) Histone peptides kinetics evaluation was carried out with a MALDI-TOF MS assay under steady-state conditions[57],[58]. Histone peptides (1,050–0 µM) were incubated with AcCoA (100 µM) and the reactions were started by the addition of the enzyme (MOF 570 nM, PCAF and GCN5 50 nM) in a final volume of 20 µL in kinetic buffer (50 mM HEPES, 0.1 mM EDTA, 0.01% TRITON-X, pH = 7.4). […] AcCoA stock solutions in milli-Q water were calibrated with a NanoDrop 2000 spectrophotometer (Thermo Scientific, Waltham, MA, USA), employing the characteristic molar extinction coefficient ε260nm = 16,400 M^−1 cm^−1. Reactions were incubated at 37 °C, shaken at 750 rpm and quenched with TFA 10% in milli-Q water at different time points, within linear production of acetylated peptides extrapolated from time-course plots. All reactions were aliquoted and mixed 1:2 with a solution of α-cyano-4-hydroxycinnamic acid (CHCCA) in 1:1 MQ and ACN (0.1% TFA) and loaded onto MTP 384 polished steel target to be analyzed by UltrafleXtreme-II tandem mass spectrometer (Bruker). The amount of acetylated peptide was calculated by integration of the product peak area and divided it by the amount of unacetylated peptide, taking in account all the ionic species, at any concentration points using the FlexAnalysis software. Kinetic values were extrapolated by fitting V0 values (µM of produced peptide per minutes) and histone peptide concentrations to the Michaelis–Menten equation using the GraphPad Prism 5 software. Kinetic experiments were carried out in duplicates and final values are reported as value ± SD.

GCN5 catalytic domain = target: T2, GCN5 catalytic domain (Homo sapiens, UniProt Q92830); assay: MALDI-TOF MS kinetics assay, GCN5; format: biochemical; conditions: for kcat^app/Km^app: same kinetics conditions; for kcat^app / Km: GCN5 catalytic domain 50 nM (2 µM for unnatural analogs), peptide 1,050–0 µM, pH 7.4, 37 °C, MALDI-TOF MS, duplicates, value ± SD, SD; for kcat^app: AcCoA 100 µM (saturating), 50 mM HEPES, 0.1 mM EDTA, 0.01% TRITON-X; for Km: AcCoA 100 µM, read-out: Km^app
T2 construct: Human GCN5 catalytic domain (residues 497–662 in pET28a-LIC vector); His-tag; host or cells: E. coli BL21(DE3)
Text: as §1, §2

PCAF (KAT2B) = target: T3, PCAF (KAT2B) (Homo sapiens, UniProt Q92831); assay: MALDI-TOF MS enzymatic assay of PCAF-catalyzed acetylation of histone peptides; format: biochemical; conditions: 100 µM peptide, 300 µM AcCoA, pH 8.0, 37 °C
T3 construct: Human PCAF catalytic domain (residues 498–658 in pET16b vector); SNAP-tag; His-tag; made in house; host or cells: E. coli BL21(DE3)
Experimental: (§3) MALDI-TOF MS enzymatic assays were carried out to investigate KAT-catalyzed acetylation of synthetic histone peptides. The enzymatic activity of the recombinantly expressed human KATs was measured at different time points (2 µM KAT enzyme, 100 µM histone peptide, 300 µM AcCoA, buffer: 50 mM Hepes, 0.1 mM EDTA, 1 mM DTT, pH = 8.0, 37 °C, hereafter used as standard conditions) (Fig. 3b,c). […] As further control, H4 and H3 peptides containing stereochemically inverted D-lysine were synthesized.
(§4) The KAT enzymatic activity towards histone peptides was measured at different time points under standard conditions (2 µM KAT enzyme, 100 µM peptide, 300 µM AcCoA) in the reaction buffer (50 mM HEPES, 0.1 mM EDTA, 1 mM DTT, pH = 8.0). The reactions were carried out in a final volume of 50 µL and shaken up in a Thermomixer C at 750 rpm, at 37 °C. The reactions were quenched by the addition of TFA 10% in MilliQ water at different time points. All reactions were aliquoted and mixed 1:2 with a solution of α-Cyano-4-hydroxycinnamic acid (CHCCA) in 1:1 MQ and ACN (0.1% TFA) and loaded onto an MTP 384 polished steel target to be analyzed by a UltrafleXtreme-II tandem mass spectrometer (Bruker, Billerica, MA, USA).

GCN5 (KAT2A) = target: T4, GCN5 (KAT2A) (Homo sapiens, UniProt Q92830); assay: MALDI-TOF MS enzymatic assay of GCN5-catalyzed acetylation of histone peptides; format: biochemical; conditions: 300 µM AcCoA, pH 8.0, 37 °C
T4 construct: Human GCN5 catalytic domain (residues 497–662 in pET28a-LIC vector); His-tag; host or cells: E. coli BL21(DE3)
Experimental: as §3, §4

[3] = target: Human GCN5 catalytic domain (residues 497-662) (human) (UniProt Q92830); remark: listed apart in the source
[4] = target: Human PCAF catalytic domain (residues 498-658) (human) (UniProt Q92831); remark: listed apart in the source

T2 sequence (Q92830 497-662): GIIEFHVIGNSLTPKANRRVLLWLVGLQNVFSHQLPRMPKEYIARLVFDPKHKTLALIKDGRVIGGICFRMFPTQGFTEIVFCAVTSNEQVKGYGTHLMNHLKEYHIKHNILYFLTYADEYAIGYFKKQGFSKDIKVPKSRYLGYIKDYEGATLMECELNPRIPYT
Sequence of Human GCN5 catalytic domain (residues 497-662) (human) (Q92830 497-662): as above
T1 sequence (Q92831 498-658): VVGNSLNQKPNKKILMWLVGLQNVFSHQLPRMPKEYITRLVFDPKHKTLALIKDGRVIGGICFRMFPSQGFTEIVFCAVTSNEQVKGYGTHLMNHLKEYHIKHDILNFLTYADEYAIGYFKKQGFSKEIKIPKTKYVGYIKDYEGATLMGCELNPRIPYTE
Sequence of Human PCAF catalytic domain (residues 498-658) (human) (Q92831 498-658): as above
T4 sequence (Q92830 497-662): as the sequence (Q92830 497-662) above
T3 sequence (Q92831 498-658): as the sequence (Q92831 498-658) above

Km^app of GCN5-catalyzed acetylation (MALDI-TOF MS kinetics, steady state, saturating AcCoA, 37 °C, pH 7.4) [1]: 1050 μM
Km^app of PCAF-catalyzed acetylation (MALDI-TOF MS kinetics, steady state, saturating AcCoA, 37 °C, pH 7.4) [2]: 606 μM
Substance: H3h2K14 histone peptide (H3 residues 3-17, K9 acetylated, h2K at position 14)

Substance: TKQTARK Ac STGG h2K 14 APR [H3h2K14, 15-mer histone H3 peptide (K9ac) with h2K at position 14]
kcat^app (PCAF catalytic domain): 0.0083 ± 0.0017 s⁻¹
Km (PCAF catalytic domain): 606 ± 96 µM
decrease (drop) of kcat/Km for PCAF compared to the natural lysine peptide (PCAF catalytic domain; PCAF, K14 series vs H3K14, K9 series vs H3K9): 625 fold
kcat^app/Km^app (PCAF catalytic domain; PCAF): 13 M⁻¹ s⁻¹
decrease (drop) of kcat/Km for GCN5 compared to the natural lysine peptide (GCN5 catalytic domain; GCN5, K14 series vs H3K14, K9 series vs H3K9): 890 fold
kcat^app/Km^app (GCN5 catalytic domain; GCN5): 6.7 M⁻¹ s⁻¹
kcat^app (GCN5 catalytic domain): 0.00667 ± 0.0017 s⁻¹
Km (GCN5 catalytic domain): 1050 µM
acetylation (conversion to acetylated peptide) by PCAF (PCAF (KAT2B); after 3 h, 2 µM PCAF, 50 mM Hepes, 0.1 mM EDTA, 1 mM DTT, MALDI-TOF MS): 55%
acetylation (conversion to acetylated peptide) by GCN5 (GCN5 (KAT2A); after 3 h, 2 µM GCN5, 100 µM peptide, 50 mM Hepes, 0.1 mM EDTA, 1 mM DTT, MALDI-TOF MS): 25%

IC50 of inhibition of GCN5-catalyzed acetylation of the H3K9 peptide (single point, 100 µM of each peptide, 1 h, 37 °C, MALDI-TOF MS; residual activity greater than 50%) [3]: > 100 µM
IC50 of inhibition of PCAF-catalyzed acetylation of the H3K9 peptide (single point, 100 µM of each peptide, 1 h, 37 °C, MALDI-TOF MS; residual activity greater than 50%) [4]: > 100 µM
Substance: H3K*9 histone peptide containing Dab at position 9 (H3 residues 1-15, K14 acetylated)

IC50 of inhibition of GCN5-catalyzed acetylation of the H3K14 peptide (single point, 100 µM of each peptide, 1 h, 37 °C, MALDI-TOF MS; residual activity greater than 50%) [3]: > 100 µM
IC50 of inhibition of PCAF-catalyzed acetylation of the H3K14 peptide (single point, 100 µM of each peptide, 1 h, 37 °C, MALDI-TOF MS; residual activity greater than 50%) [4]: > 100 µM
Substance: H3K*14 histone peptide containing Dab at position 14 (H3 residues 3-17, K9 acetylated)

IC50 of inhibition of GCN5-catalyzed acetylation of the H3K14 peptide (single point, 100 µM of each peptide, 1 h, 37 °C, MALDI-TOF MS; residual activity greater than 50%) [3]: > 100 µM
IC50 of inhibition of PCAF-catalyzed acetylation of the H3K14 peptide (single point, 100 µM of each peptide, 1 h, 37 °C, MALDI-TOF MS; residual activity greater than 50%) [4]: > 100 µM
Substance: H3K*14 histone peptide containing h4K at position 14 (H3 residues 3-17, K9 acetylated)

Substance: TKQTARK Ac STGG K14 APR [H3K14, 15-mer H3 peptide, residues 3–17, synthetically acetylated K9, reference compound]
kcat^app (PCAF catalytic domain): 6.07 ± 0.02 s⁻¹
Km (PCAF catalytic domain): 727 ± 95 µM
kcat^app/Km^app (PCAF catalytic domain; PCAF): 8330 M⁻¹ s⁻¹
kcat^app/Km^app (GCN5 catalytic domain; GCN5): 5930 M⁻¹ s⁻¹
kcat^app (GCN5 catalytic domain): 5.9 ± 0.035 s⁻¹
Km (GCN5 catalytic domain): 995 ± 198 µM
time to quantitative acetylation by PCAF (PCAF (KAT2B); standard conditions: 2 µM PCAF): 15 min
time to quantitative acetylation by GCN5 (GCN5 (KAT2A); standard conditions: 2 µM GCN5, 100 µM peptide): 15 min

Km^app of GCN5-catalyzed acetylation (MALDI-TOF MS kinetics, steady state, saturating AcCoA, 37 °C, pH 7.4) [1]: 878 μM
Km^app of PCAF-catalyzed acetylation (MALDI-TOF MS kinetics, steady state, saturating AcCoA, 37 °C, pH 7.4) [2]: 488 μM
Substance: H3hK14 histone peptide (H3 residues 3-17, K9 acetylated, hLys at position 14)
